According to patent US20100016387A1, “METHOD OF TREATMENT” (priority 2006, published 2010):

What was measured:
[1] = tested on: neonatal rat cardiomyocytes; assay: Fatty acid oxidation (14CO2 release from 14C-palmitate) in rat primary cardiomyocytes treated with DGAT1 inhibitor; details: 1 μM, 2 hr
Procedure: Neonatal Rat Ventricular Myocytes (NRVM's) were extracted from 1-3 day old Sprague Dawley rat pups. […] Both the right and left ventricles were digested in CBHHF media containing 0.2% Trypsin, 100 U Penn-Strep and DNAse II. […] Fibroblasts were separated from the myocytes by preplating for 30 min. […] Myocytes were then collected and cultured in MEM/5% FBS/Pen-Strep/BrDU/L-Gln overnight at 37 C, 5.0% CO2 at a confluency of 75-80% (1.8×10^6 cells per well of a 6 well plate and 0.9×10^6 cells per well of a 12 well plate). The following day myocyte containing plates were assayed for fatty acid oxidation capacity.
Rat primary cardiomyocytes were plated in either 6 well plate or 12 well plate. […] The sample was counted on a beta scintillation counter after resting for at least 2 hours. […]
Primary rat cardiomyocytes were incubated with 1 μM {4-[4-(4-Amino-7,7-dimethyl-7H-pyrimido[4,5-b][1,4]oxazin-6-yl)-phenyl]-cyclohexyl}-acetic acid for 2 hr. The cells were then incubated with ^14C-labeled palmitate and liberated ^14CO2 was determined as described. […]
Primary rat cardiomyocytes were incubated with 1 μM {4-[4-(4-Amino-7,7-dimethyl-7H-pyrimido[4,5-b][1,4]oxazin-6-yl)-phenyl]-cyclohexyl}-acetic acid for 2 hr. The cells were then incubated with ^14C-labeled palmitate, with 0.5 mM glucose, and liberated ^14CO2 was determined as described. […]

| melting point [°C] | Structure (SMILES) | fatty acid oxidation in cardiomyocytes in presence of glucose ([1]; 0.5 mM glucose, FIG. 3, p<0.05) | decrease in the ability of cells to oxidize [14C]palmitate ([1]; absence of glucose, FIG. 2, p<0.05) [%] |
| --- | --- | --- | --- |
| 223 to 225 | Cc1ccc(NC(=O)c2ccc3c(c2)C(=O)N(c2c(C)cccc2C)C3=O)cc1C | – | – |
| – | CC1(C)Oc2ncnc(N)c2N=C1c1ccc(C2CCC(CC(=O)O)CC2)cc1 (stereo not drawn) | robust decrease in fatty acid oxidation | ~15 |
